According to patent US20060154895A1, “Method of treating acquired immunedeficiency syndrome” (priority 2004, published 2006):

Assays:
T-cells = assay: Blood T-cell levels after curdlan sulfate alone in HIV infected patients; format: in vivo, human; conditions: curdlan sulfate administered by itself to HIV infected patients
Excerpt: The present invention provides a treatment method for HIV infections that is designed to completely eradicate the HIV virus. […] The reappearance of HIV virus in the blood after the interruption of current therapies makes it likely that the HIV virus is capable of being retained in some biological reservoir where current therapies are unable to create an environment that inhibits or destroys the HIV virus. […] The large increase in T-cells is believed to be due to a release or flushing of T-cells from a biological repository or storage site rather than a biological production of new T-cells. This phenomenon has caused the applicants to theorize that the repository or storage site for the T-cells is also a sanctuary for the HIV virus which appears to have an ability to shield itself from the effects of anti-HIV drugs which are circulated in the blood to all of the bodies organs. The invention is directed to the administration of an entry/fusion inhibitor after a HAART drug combination has been administered in an effective amount for a sufficient time to cause the HIV cells to been eradicated from the blood stream. Thereafter, the entry/fusion inhibitor is administered in an effective amount for a sufficient period of time to eradicate the HIV cells.

[1] = Tolerance screening: daily IV dose escalation of curdlan sulfate until APTT is doubled (MTD); format: in vivo, human; conditions: IV infusion, HIV positive patients
Experimental: Patients are selected for treatment with the method of the invention based on the fact that they have previously tested positive for HIV and presently have some detectable level of HIV. Initially, the patients are screened for the effect of curdlan sulfate on coagulation times by measuring the time to coagulation using the activated partial thromboplastin time test (APTT) after IV infusion of 50 mg of curdlan sulfate in over a period of 30 minutes. A test dose of […] of curdlan sulfate is given on the first day and each day thereafter, the dose of curdlan sulfate is increased in 50 mg increments until the APTT is doubled. […] When the MTD is determined for each patient, the MTD is repeated daily for 21 days while the particular dosage regimen of the HAART drugs is continued. After the 21 days of curdlan sulfate therapy is completed, the HAART treatment regimen is also suspended and the viral load is determined daily. If there is no measurable viral load after this treatment, the treatment is deemed to be successful. If the viral load returns to measurable levels for three days, the HAART therapy may be reinstituted followed by another sequence of curdlan sulfate therapy.

curdlan sulfate
detectable blood levels of T-cells (T-cells): large increases in detectable bloods levels of T-cells | bleeding at the MTD [1]: no bleeding at the site of injection or elsewhere is detected
